These are literature values, as cited in patent US20050186168A1, “Skin remodeling and regenerative compositions containing elastin peptide ligands having the amino acid sequence (XGXXPG)n” (priority 2004, published 2005).

For data set [1], the system named is pro-MMP-3.
In data set [2] the test system is pro-MMP-1. To be noted: for concentration sufficient to stimulate pro-MMP-1 production: fibroblast culture, comparable stimulation levels.
Data set [3] deals with MMP-1 mRNA. To be noted: after 24 h of culture; standardized with 36B4 cDNA probe.
Data set [4] deals with Human lymphocytes. The note with it: 1 microgram/ml.
The subject of data set [5] is elastin-laminin receptor (ELR). To be noted: 5 micrograms/ml (140 micromolar), 10th and 15th passage.
Data set [6] concerns human skin fibroblasts.
The mark [7] stands for this setting: 1 mM lactose in fibroblast culture medium.

In the case of VGVAPG, the “expression of proteins reacting with anti-MMP-3 antibody (pro-MMP-3)” value in data set [1] (Western blotting, stimulated fibroblasts) is recorded as “significantly up-regulated”. Besides, in data set [2], the pro-MMP-1 induction level is given as 1 ng/h/10^5 fibroblasts and the “concentration sufficient to stimulate pro-MMP-1 production” value (from here on “concentration sufficient”) was 200 µg/mL. Moreover, the “MMP-1 mRNA levels increased” value in data set [3] is 8 fold.

Consider “interleukin-1 receptor antagonist: interleukin-1 receptor antagonist”, for which the “blocking of elastin peptide-dependent induction of pro-MMP-1” value in data set [2] is “could not be blocked”.

In the case of LGTIPG, the “stimulation of MMP-1 expression” value in data set [2] (laminin-derived peptide) was “Stimulation of MMP-1 expression could also be achieved”.

As for GVAPGV, the “efficiency of pro-MMP-1 induction relative to VGVAPG (more efficient)” value in data set [2] (compared with VGVAPG) was 20%.

Regarding `OC[C@H]1O[C@@H](O[C@H]2[C@H](O)[C@@H](O)C(O)O[C@@H]2CO)[C@H](O)[C@@H](O)[C@H]1O` (stereo partly shown) [lactose], the “accumulation of pro-MMP-3 in the medium” value in data set [1] (cells treated with 1 mM lactose) is reported as “decreased”. Also, in data set [2] (setting [7]), the “inhibition of VGVAPG-stimulating effect on pro-MMP-1 production” value is on record as 80% and the “inhibition of kE-stimulated pro-MMP-1 production” value is recorded as 35%. The “effect on pro-MMP-1 accumulation stimulated by interleukin-1” value in data set [2] (lactose alone) is “no effect”. The “elastin peptide-induced cell death” value in data set [4] was “inhibited”.

Take `OC[C@H]1O[C@H](OCC2O[C@@H](O)[C@H](O)[C@@H](O)[C@@H]2O)[C@H](O)[C@@H](O)[C@H]1O` (stereo partly shown) [melibiose]: in data set [5], the fibronectin biosynthesis result is listed as “decreased” and the total protein biosynthesis result is reported as “decreased”. Besides, in data set [6], the “incorporation of the tracer in GAGs” value was “increased” and the “post-synthetic degradation of hyaluronan” value is given as “inhibited”. The “elastin peptide-induced cell death” value in data set [4] was “inhibited”.

B1: Elastin: extracellular matrix protein elastin (protein, UniProt P15502 27-786, looked up)
Elastin: GGVPGAIPGGVPGGVFYPGAGLGALGGGALGPGGKPLKPVPGGLAGAGLGAGLGAFPAVTFPGALVPGGVADAAAAYKAAKAGAGLGGVPGVGGLGVSAGAVVPQPGAGVKPGKVPGVGLPGVYPGGVLPGARFPGVGVLPGVPTGAGVKPKAPGVGGAFAGIPGVGPFGGPQPGVPLGYPIKAPKLPGGYGLPYTTGKLPYGYGPGGVAGAAGKAGYPTGTGVGPQAAAAAAAKAAAKFGAGAAGVLPGVGGAGVPGVPGAIPGIGGIAGVGTPAAAAAAAAAAKAAKYGAAAGLVPGGPGFGPGVVGVPGAGVPGVGVPGAGIPVVPGAGIPGAAVPGVVSPEAAAKAAAKAAKYGARPGVGVGGIPTYGVGAGGFPGFGVGVGGIPGVAGVPGVGGVPGVGGVPGVGISPEAQAAAAAKAAKYGAAGAGVLGGLVPGAPGAVPGVPGTGGVPGVGTPAAAAAKAAAKAAQFGLVPGVGVAPGVGVAPGVGVAPGVGLAPGVGVAPGVGVAPGVGVAPGIGPGGVAAAAKSAAKVAAKAQLRAAAGLGAGIPGLGVGVGVPGLGVGAGVPGLGVGAGVPGFGAGADEGVRRSLSPELREGDPSSSQHLPSTPSSPRVPGALAAAKAAKYGAAVPGVLGGLGALGGVGIPGGVVGAGPAAAAAAAKAAAKAAQFGLVGAAGLGGLGVGGLGVPGVGGLGGIPPAAAAKAAKYGAAGLGGVLGGAGQFPLGGVAARPGFGLSPIFPGGACLGKACGRKRK
For B1, in data set [2], the “concentration sufficient” value was 50 µg/mL.

B2: tropoelastin: the soluble precursor of elastin (protein, UniProt P15502 27-786, looked up)
Elastin: GGVPGAIPGGVPGGVFYPGAGLGALGGGALGPGGKPLKPVPGGLAGAGLGAGLGAFPAVTFPGALVPGGVADAAAAYKAAKAGAGLGGVPGVGGLGVSAGAVVPQPGAGVKPGKVPGVGLPGVYPGGVLPGARFPGVGVLPGVPTGAGVKPKAPGVGGAFAGIPGVGPFGGPQPGVPLGYPIKAPKLPGGYGLPYTTGKLPYGYGPGGVAGAAGKAGYPTGTGVGPQAAAAAAAKAAAKFGAGAAGVLPGVGGAGVPGVPGAIPGIGGIAGVGTPAAAAAAAAAAKAAKYGAAAGLVPGGPGFGPGVVGVPGAGVPGVGVPGAGIPVVPGAGIPGAAVPGVVSPEAAAKAAAKAAKYGARPGVGVGGIPTYGVGAGGFPGFGVGVGGIPGVAGVPGVGGVPGVGGVPGVGISPEAQAAAAAKAAKYGAAGAGVLGGLVPGAPGAVPGVPGTGGVPGVGTPAAAAAKAAAKAAQFGLVPGVGVAPGVGVAPGVGVAPGVGLAPGVGVAPGVGVAPGVGVAPGIGPGGVAAAAKSAAKVAAKAQLRAAAGLGAGIPGLGVGVGVPGLGVGAGVPGLGVGAGVPGFGAGADEGVRRSLSPELREGDPSSSQHLPSTPSSPRVPGALAAAKAAKYGAAVPGVLGGLGALGGVGIPGGVVGAGPAAAAAAAKAAAKAAQFGLVGAAGLGGLGVGGLGVPGVGGLGGIPPAAAAKAAKYGAAGLGGVLGGAGQFPLGGVAARPGFGLSPIFPGGACLGKACGRKRK
For B2, the “concentration sufficient” value in data set [2] is 50 µg/mL.
